Measured values as given in PMC8713471, “Insights Into the Inhibition of MOX-1 β-Lactamase by S02030, a Boronic Acid Transition State Inhibitor” (Frontiers in Microbiology, 2021).

Legend:
MOX-1 β-lactamase [1] = target: T1, MOX-1 β-lactamase (Klebsiella pneumoniae, UniProt Q51578); assay: Inhibition of cephalothin hydrolysis by purified MOX-1, […] min pre-incubation, UV/VIS (Ki and IC50); assay type: biochemical; set-up: gene blaMOX-1; purified MOX-1, (His)8 tag removed with thrombin
MOX-1 β-lactamase [2] = target: T1, MOX-1 β-lactamase; assay: X-ray crystal structure at […] Å; also Ki and IC50 with purified enzyme (cephalothin hydrolysis); assay type: biochemical; set-up: gene blaMOX-1; N-terminal (His)8-tagged MOX-1 for crystals (model Asp6-Arg305 and Gln310-Gly362); tag removed with thrombin for kinetics

T1 sequence (Q51578 entry or part of it): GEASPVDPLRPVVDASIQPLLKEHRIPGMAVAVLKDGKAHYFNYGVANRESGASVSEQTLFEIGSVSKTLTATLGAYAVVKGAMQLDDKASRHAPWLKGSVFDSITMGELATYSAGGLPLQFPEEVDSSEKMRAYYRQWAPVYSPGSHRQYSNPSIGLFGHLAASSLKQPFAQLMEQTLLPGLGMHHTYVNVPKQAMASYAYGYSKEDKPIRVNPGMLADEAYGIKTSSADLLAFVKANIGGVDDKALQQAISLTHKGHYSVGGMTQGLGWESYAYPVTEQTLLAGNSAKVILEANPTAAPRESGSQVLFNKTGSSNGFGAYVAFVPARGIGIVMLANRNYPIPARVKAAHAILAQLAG

Ki (MOX-1 β-lactamase [2]) [µM] | SMILES | Ki (MOX-1 β-lactamase [1]) [µM]
– | C[C@H]1[C@H](NC(=O)/C(=N\OC(C)(C)C(=O)O)c2csc(N)n2)C(=O)N1S(=O)(=O)O [Aztreonam] | 0.01 ± 0.001
0.56 ± 0.03 | O=C(Cc1cccs1)N[C@@H](Cn1cc(C(=O)O)nn1)B(O)O [S02030] | –
